Measured values published in patent publication EP4603105A1, “PHARMACEUTICAL COMPOSITION CONTAINING CYCLIC COMPOUND HAVING SELECTIVE KRAS INHIBITORY EFFECT AGAINST HRAS AND NRAS” (CHUGAI SEIYAKU KABUSHIKI KAISHA, priority 2022, dated 2024).
pIC50: −log10 of the molar value. *1 amine or outer side, *2 acyl side, *3 side chain or, on linkers, in order; H or OH if unused. Where a SMILES comes first, the peptide text is derived from it. Bridges are numbered along the chain shown (N, C = ends). [ ]: non-standard residue; d: D form. The star is where a group is joined. X25 = O=C([C@H](Cc1ccc(C(F)(F)F)cc1)N(CCC(F)(F)F)[*:1])[*:2]; hPhe(3-Cl-4-CF3) = N[C@@H](CCc1ccc(C(F)(F)F)c(Cl)c1)C(=O)O; X43 = COCCCN([C@@H](Cc1ccc(C(F)(F)F)cc1)C(=O)[*:2])[*:1]; X29 = C#CCN([C@@H](Cc1ccc(C(F)(F)F)cc1)C(=O)[*:2])[*:1]; X34 = COCCN([C@@H](Cc1ccc(C(F)(F)F)cc1)C(=O)[*:2])[*:1]; NPrPhe(4-CF3) = CCCN[C@@H](Cc1ccc(C(F)(F)F)cc1)C(=O)O; X46 = C=CCCN([C@@H](Cc1ccc(C)cc1)C(=O)[*:2])[*:1]; X41 = CCCN([C@@H](Cc1ccc(OC)cc1)C(=O)[*:2])[*:1]; X50 = C=CCN([C@@H](Cc1ccc(C)cc1)C(=O)[*:2])[*:1]; NPrPhe(4-Me) = CCCN[C@@H](Cc1ccc(C)cc1)C(=O)O; NMeGly(cPent) = CN[C@H](C(=O)O)C1CCCC1; Aze(3S-Me) = C[C@H]1CN[C@@H]1C(=O)O; NMeAllylGly = C=CC[C@H](NC)C(=O)O; NMeD = CN[C@@H](CC(=O)O)C(=O)O; NMeL = CN[C@@H](CC(C)C)C(=O)O; Morpholide = C1CN(*)CCO1; NMeA = CN[C@@H](C)C(=O)O; Ac5c = NC1(C(=O)O)CCCC1; Aze = O=C(O)[C@@H]1CCN1; NEtG = CCNCC(=O)O; Sar = CNCC(=O)O

Assays:
[1] = molecular target: GDP-bound NRAS wild-type protein (Homo sapiens, UniProt P01111); test: Binding to NRAS by surface plasmon resonance (SPR), KD and KD ratio to KRAS; conditions: ratio of KD for GDP-bound NRAS wild-type protein to KD for KRAS
GDP-bound NRAS wild-type protein, sequence (P01111 whole entry): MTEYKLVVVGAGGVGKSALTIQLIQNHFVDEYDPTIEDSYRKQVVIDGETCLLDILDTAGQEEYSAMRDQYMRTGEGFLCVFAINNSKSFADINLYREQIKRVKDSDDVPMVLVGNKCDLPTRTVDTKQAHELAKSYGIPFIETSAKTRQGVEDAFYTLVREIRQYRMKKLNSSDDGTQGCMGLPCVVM
Procedure, shortened: (§1)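 SPR, 30°C: Avi-biotin RAS·GDP captured via Biotin CAPture (~100–300 RU); running buffer HBS pH 7.4, 1 mM DTT, 10 mM MgCl2, 0.01% Tween 20, 10 µM GDP, 4% DMSO. Single-cycle kinetics, 100 µL/min, 75 s injections; 1:1 model → KD.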

[2] = molecular target: HRAS wild-type protein (Homo sapiens, UniProt P01112); test: Binding to HRAS by surface plasmon resonance (SPR), KD and KD ratio to KRAS; conditions: ratio of KD for HRAS wild-type protein to KD for KRAS
HRAS wild-type protein, sequence (P01112 whole entry): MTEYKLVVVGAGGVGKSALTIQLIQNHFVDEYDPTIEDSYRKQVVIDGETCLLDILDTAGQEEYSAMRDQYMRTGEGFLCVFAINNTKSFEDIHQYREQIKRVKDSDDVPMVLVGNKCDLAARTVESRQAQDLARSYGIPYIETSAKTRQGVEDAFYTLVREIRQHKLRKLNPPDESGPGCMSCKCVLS
Procedure, shortened: as §1

[3] = tested on: human lung cancer strain NCI-H441; assay type: cell-based
Procedure, shortened: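 Proliferation was scored by […] measured after the reagent was added to cultures kept at 37°C in 5% carbon dioxide.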

Compound | pIC50 [3] | NRAS /KRAS [1] | HRAS /KRAS [2]
CCCN1C(=O)[C@@H]2CCN2C(=O)[C@H](C)N(C)C(=O)[C@H]([C@@H](C)CC)NC(=O)[C@H](CC(C)C)N(C)C(=O)C[C@@H](C(=O)N2CCOCC2)N(C)C(=O)[C@H](C2CCCC2)N(C)C(=O)C2(CCCC2)NC(=O)[C@@H]2CCCN2C(=O)[C@H](CCc2ccc(C(F)(F)F)c(Cl)c2)NC(=O)CN(C)C(=O)[C@@H]1Cc1ccc(OC)cc1 [PP0134] ([NMeL]I[NMeA][Aze][X41][Sar][hPhe(3-Cl-4-CF3)]P[Ac5c][NMeGly(cPent)][NMeD]-Morpholide; lactam N-11) | 7.73 | C (A compound having a KD ratio of 0.1 or more and less than 3 is denoted as C) | B (a compound having 3 or more and less than 10 is denoted as B)
CCCN1C(=O)CN(C)C(=O)CN(C)C(=O)[C@H]([C@@H](C)CC)NC(=O)[C@H](CC(C)C)N(C)C(=O)C[C@@H](C(=O)N2CCOCC2)N(C)C(=O)[C@H](C2CCCC2)N(C)C(=O)C2(CCCC2)NC(=O)[C@@H]2CCCN2C(=O)[C@H](CCc2ccc(C(F)(F)F)c(Cl)c2)NC(=O)CN(C)C(=O)[C@@H]1Cc1ccc(OC)cc1 [PP0135] ([NMeL]I[Sar][Sar][X41][Sar][hPhe(3-Cl-4-CF3)]P[Ac5c][NMeGly(cPent)][NMeD]-Morpholide; lactam N-11) | 7.58 | B (a compound having 3 or more and less than 10 is denoted as B) | C (A compound having a KD ratio of 0.1 or more and less than 3 is denoted as C)
CCCN1C(=O)[C@@H]2[C@@H](C)CN2C(=O)[C@H](C)N(C)C(=O)[C@H]([C@@H](C)CC)NC(=O)[C@H](CC(C)C)N(C)C(=O)C[C@@H](C(=O)N2CCOCC2)N(C)C(=O)[C@H](C2CCCC2)N(C)C(=O)C2(CCCC2)NC(=O)[C@@H]2CCCN2C(=O)[C@H](CCc2ccc(C(F)(F)F)c(Cl)c2)NC(=O)CN(C)C(=O)[C@@H]1Cc1ccc(C)cc1 [PP0138] ([NMeL]I[NMeA][Aze(3S-Me)][NPrPhe(4-Me)][Sar][hPhe(3-Cl-4-CF3)]P[Ac5c][NMeGly(cPent)][NMeD]-Morpholide; lactam N-11) | 7.69 | C (A compound having a KD ratio of 0.1 or more and less than 3 is denoted as C) | C (A compound having a KD ratio of 0.1 or more and less than 3 is denoted as C)
C=CC[C@H]1C(=O)N(CC=C)[C@@H](Cc2ccc(C)cc2)C(=O)N(C)CC(=O)N[C@@H](CCc2ccc(C(F)(F)F)c(Cl)c2)C(=O)N2CCC[C@H]2C(=O)NC2(CCCC2)C(=O)N(C)[C@@H](C2CCCC2)C(=O)N(C)[C@H](C(=O)N2CCOCC2)CC(=O)N(C)[C@@H](CC(C)C)C(=O)N[C@@H]([C@@H](C)CC)C(=O)N(C)CC(=O)N1C [PP0139] ([NMeL]I[Sar][NMeAllylGly][X50][Sar][hPhe(3-Cl-4-CF3)]P[Ac5c][NMeGly(cPent)][NMeD]-Morpholide; lactam N-11) | 5.83 | C (A compound having a KD ratio of 0.1 or more and less than 3 is denoted as C) | C (A compound having a KD ratio of 0.1 or more and less than 3 is denoted as C)
C=CCCN1C(=O)[C@H](CC=C)N(C)C(=O)CN(C)C(=O)[C@H]([C@@H](C)CC)NC(=O)[C@H](CC(C)C)N(C)C(=O)C[C@@H](C(=O)N2CCOCC2)N(C)C(=O)[C@H](C2CCCC2)N(C)C(=O)C2(CCCC2)NC(=O)[C@@H]2CCCN2C(=O)[C@H](CCc2ccc(C(F)(F)F)c(Cl)c2)NC(=O)CN(C)C(=O)[C@@H]1Cc1ccc(C)cc1 [PP0140] ([NMeL]I[Sar][NMeAllylGly][X46][Sar][hPhe(3-Cl-4-CF3)]P[Ac5c][NMeGly(cPent)][NMeD]-Morpholide; lactam N-11) | 6.15 | C (A compound having a KD ratio of 0.1 or more and less than 3 is denoted as C) | B (a compound having 3 or more and less than 10 is denoted as B)
CCCN1C(=O)[C@@H]2[C@@H](C)CN2C(=O)[C@H](C)N(C)C(=O)[C@H]([C@@H](C)CC)NC(=O)[C@H](CC(C)C)N(C)C(=O)C[C@@H](C(=O)N2CCOCC2)N(C)C(=O)[C@H](C2CCCC2)N(C)C(=O)C2(CCCC2)NC(=O)[C@@H]2CCCN2C(=O)[C@H](CCc2ccc(C(F)(F)F)c(Cl)c2)NC(=O)CN(C)C(=O)[C@@H]1Cc1ccc(C(F)(F)F)cc1 [PP0141] ([NMeL]I[NMeA][Aze(3S-Me)][NPrPhe(4-CF3)][Sar][hPhe(3-Cl-4-CF3)]P[Ac5c][NMeGly(cPent)][NMeD]-Morpholide; lactam N-11) | 8.46 | C (A compound having a KD ratio of 0.1 or more and less than 3 is denoted as C) | B (a compound having 3 or more and less than 10 is denoted as B)
CCCN1C(=O)CN(C)C(=O)CN(C)C(=O)[C@H]([C@@H](C)CC)NC(=O)[C@H](CC(C)C)N(C)C(=O)C[C@@H](C(=O)N2CCOCC2)NC(=O)[C@H](C2CCCC2)N(C)C(=O)C2(CCCC2)NC(=O)[C@@H]2CCCN2C(=O)[C@H](CCc2ccc(C(F)(F)F)c(Cl)c2)NC(=O)CN(C)C(=O)[C@@H]1Cc1ccc(C(F)(F)F)cc1 [PP0146] ([NMeL]I[Sar][Sar][NPrPhe(4-CF3)][Sar][hPhe(3-Cl-4-CF3)]P[Ac5c][NMeGly(cPent)]D-Morpholide; lactam N-11) | 7.62 | B (a compound having 3 or more and less than 10 is denoted as B) | B (a compound having 3 or more and less than 10 is denoted as B)

The next lines start with results.

pIC50 [3] | Compound | NRAS /KRAS [1] | HRAS /KRAS [2]
8.06 | C#CCN1C(=O)CN(C)C(=O)CN(C)C(=O)[C@H]([C@@H](C)CC)NC(=O)[C@H](CC(C)C)N(C)C(=O)C[C@@H](C(=O)N2CCOCC2)N(C)C(=O)[C@H](C2CCCC2)N(C)C(=O)C2(CCCC2)NC(=O)[C@@H]2CCCN2C(=O)[C@H](CCc2ccc(C(F)(F)F)c(Cl)c2)NC(=O)CN(C)C(=O)[C@@H]1Cc1ccc(C(F)(F)F)cc1 [PP0130] ([NMeL]I[Sar][Sar][X29][Sar][hPhe(3-Cl-4-CF3)]P[Ac5c][NMeGly(cPent)][NMeD]-Morpholide; lactam N-11) | C (A compound having a KD ratio of 0.1 or more and less than 3 is denoted as C) | C (A compound having a KD ratio of 0.1 or more and less than 3 is denoted as C)
7.95 | CC[C@H](C)[C@@H]1NC(=O)[C@H](CC(C)C)N(C)C(=O)C[C@@H](C(=O)N2CCOCC2)N(C)C(=O)[C@H](C2CCCC2)N(C)C(=O)C2(CCCC2)NC(=O)[C@@H]2CCCN2C(=O)[C@H](CCc2ccc(C(F)(F)F)c(Cl)c2)NC(=O)CN(C)C(=O)[C@H](Cc2ccc(C(F)(F)F)cc2)N(CCC(F)(F)F)C(=O)CN(C)C(=O)CN(C)C1=O [PP0131] ([NMeL]I[Sar][Sar][X25][Sar][hPhe(3-Cl-4-CF3)]P[Ac5c][NMeGly(cPent)][NMeD]-Morpholide; lactam N-11) | B (a compound having 3 or more and less than 10 is denoted as B) | C (A compound having a KD ratio of 0.1 or more and less than 3 is denoted as C)
7.83 | CC[C@H](C)[C@@H]1NC(=O)[C@H](CC(C)C)N(C)C(=O)C[C@@H](C(=O)N2CCOCC2)N(C)C(=O)[C@H](C2CCCC2)N(C)C(=O)C2(CCCC2)NC(=O)[C@@H]2CCCN2C(=O)[C@H](CCc2ccc(C(F)(F)F)c(Cl)c2)NC(=O)CN(C)C(=O)[C@H](Cc2ccc(C(F)(F)F)cc2)N(CCOC)C(=O)CN(C)C(=O)CN(C)C1=O [PP0132] ([NMeL]I[Sar][Sar][X34][Sar][hPhe(3-Cl-4-CF3)]P[Ac5c][NMeGly(cPent)][NMeD]-Morpholide; lactam N-11) | C (A compound having a KD ratio of 0.1 or more and less than 3 is denoted as C) | C (A compound having a KD ratio of 0.1 or more and less than 3 is denoted as C)
8.19 | CC[C@H](C)[C@@H]1NC(=O)[C@H](CC(C)C)N(C)C(=O)C[C@@H](C(=O)N2CCOCC2)N(C)C(=O)[C@H](C2CCCC2)N(C)C(=O)C2(CCCC2)NC(=O)[C@@H]2CCCN2C(=O)[C@H](CCc2ccc(C(F)(F)F)c(Cl)c2)NC(=O)CN(C)C(=O)[C@H](Cc2ccc(C(F)(F)F)cc2)N(CCCOC)C(=O)CN(C)C(=O)CN(C)C1=O [PP0133] ([NMeL]I[Sar][Sar][X43][Sar][hPhe(3-Cl-4-CF3)]P[Ac5c][NMeGly(cPent)][NMeD]-Morpholide; lactam N-11) | B (a compound having 3 or more and less than 10 is denoted as B) | C (A compound having a KD ratio of 0.1 or more and less than 3 is denoted as C)
7.74 | CCCN1C(=O)CN(C)C(=O)CN(C)C(=O)[C@H]([C@@H](C)CC)NC(=O)[C@H](CC(C)C)N(C)C(=O)C[C@@H](C(=O)N2CCOCC2)N(C)C(=O)[C@H](C2CCCC2)N(C)C(=O)C2(CCCC2)NC(=O)CN(CC)C(=O)[C@H](CCc2ccc(C(F)(F)F)c(Cl)c2)NC(=O)CN(C)C(=O)[C@@H]1Cc1ccc(C(F)(F)F)cc1 [PP0144] ([NMeL]I[Sar][Sar][NPrPhe(4-CF3)][Sar][hPhe(3-Cl-4-CF3)][NEtG][Ac5c][NMeGly(cPent)][NMeD]-Morpholide; lactam N-11) | B (a compound having 3 or more and less than 10 is denoted as B) | C (A compound having a KD ratio of 0.1 or more and less than 3 is denoted as C)
8.06 | CCCN1C(=O)CN(C)C(=O)CN(CC)C(=O)[C@H]([C@@H](C)CC)NC(=O)[C@H](CC(C)C)N(C)C(=O)C[C@@H](C(=O)N2CCOCC2)N(C)C(=O)[C@H](C2CCCC2)N(C)C(=O)C2(CCCC2)NC(=O)[C@@H]2CCCN2C(=O)[C@H](CCc2ccc(C(F)(F)F)c(Cl)c2)NC(=O)CN(C)C(=O)[C@@H]1Cc1ccc(C(F)(F)F)cc1 [PP0145] ([NMeL]I[NEtG][Sar][NPrPhe(4-CF3)][Sar][hPhe(3-Cl-4-CF3)]P[Ac5c][NMeGly(cPent)][NMeD]-Morpholide; lactam N-11) | B (a compound having 3 or more and less than 10 is denoted as B) | B (a compound having 3 or more and less than 10 is denoted as B)
